{"source": "ChEMBL document CHEMBL1821612", "about": "“Discovery of novel antitubercular 3a,4-dihydro-3H-indeno[1,2-c]pyrazole-2-carboxamide/carbothioamide analogues” (Bioorg Med Chem Lett, 2011)", "data": [{"system": "Vero", "assay": "Cytotoxicity against african green monkey Vero cells up to 62.5 ug/mL after 72 hrs by MTT assay", "type": "cell-based", "conditions": "chlorocebus sabaeus", "values": [{"smiles": "COc1cc2c(cc1OC)C1=NN(C(N)=S)C(c3ccc(F)cc3)C1C2", "note": "(stereo unspecified)", "Activity": "Non-toxic"}]}, {"system": "Mycobacterium tuberculosis", "assay": "Antimycobacterial activity against Mycobacterium tuberculosis H37Rv after 2 weeks by BACTEC 460 radiometric method", "type": "functional", "conditions": "336 h", "units": {"MIC": "µM"}, "values": [{"smiles": "COc1cc2c(cc1OC)C1=NN(C(=O)Nc3ccc(C)cc3C)C(c3ccncc3)C1C2", "note": "(stereo unspecified)", "MIC": 10}, {"smiles": "COc1cc2c(cc1OC)C1=NN(C(=O)Nc3ccc(C)cc3C)C(c3ccccc3Cl)C1C2", "note": "(stereo unspecified)", "MIC": 6.25}, {"smiles": "COc1cc2c(cc1OC)C1=NN(C(=O)Nc3ccc(C)cc3C)C(c3ccc(F)cc3)C1C2", "note": "(stereo unspecified)", "MIC": 6.25}, {"smiles": "COc1ccc(C2C3Cc4cc(OC)c(OC)cc4C3=NN2C(=O)Nc2ccc(C)cc2C)cc1OC", "note": "(stereo unspecified)", "MIC": 12.5}, {"smiles": "COc1cc2c(cc1OC)C1=NN(C(=O)Nc3ccc(C)cc3C)C(c3ccccc3)C1C2", "note": "(stereo unspecified)", "MIC": "> 12.5"}, {"smiles": "COc1ccc(C2C3Cc4cc(OC)c(OC)cc4C3=NN2C(=O)Nc2ccc(C)cc2C)cc1", "note": "(stereo unspecified)", "MIC": "> 12.5"}, {"smiles": "COc1cc2c(cc1OC)C1=NN(C(=O)Nc3c(C)cccc3C)C(c3ccncc3)C1C2", "note": "(stereo unspecified)", "MIC": "> 10"}, {"smiles": "COc1cc2c(cc1OC)C1=NN(C(=O)Nc3c(C)cccc3C)C(c3ccccc3Cl)C1C2", "note": "(stereo unspecified)", "MIC": 6.25}, {"smiles": "COc1cc2c(cc1OC)C1=NN(C(=O)Nc3c(C)cccc3C)C(c3ccc(F)cc3)C1C2", "note": "(stereo unspecified)", "MIC": 6.25}, {"smiles": "COc1ccc(C2C3Cc4cc(OC)c(OC)cc4C3=NN2C(=O)Nc2c(C)cccc2C)cc1OC", "note": "(stereo unspecified)", "MIC": 12.5}, {"smiles": "COc1cc2c(cc1OC)C1=NN(C(=O)Nc3c(C)cccc3C)C(c3ccccc3)C1C2", "note": "(stereo unspecified)", "MIC": 12.5}, {"smiles": "COc1ccc(C2C3Cc4cc(OC)c(OC)cc4C3=NN2C(=O)Nc2c(C)cccc2C)cc1", "note": "(stereo unspecified)", "MIC": "> 12.5"}, {"smiles": "COc1cc2c(cc1OC)C1=NN(C(N)=S)C(c3ccncc3)C1C2", "note": "(stereo unspecified)", "MIC": 6.25}, {"smiles": "COc1cc2c(cc1OC)C1=NN(C(N)=S)C(c3ccccc3Cl)C1C2", "note": "(stereo unspecified)", "MIC": 6.25}, {"smiles": "COc1cc2c(cc1OC)C1=NN(C(N)=S)C(c3ccc(F)cc3)C1C2", "note": "(stereo unspecified)", "MIC": 3.12}, {"smiles": "COc1ccc(C2C3Cc4cc(OC)c(OC)cc4C3=NN2C(N)=S)cc1OC", "note": "(stereo unspecified)", "MIC": 12.5}, {"smiles": "COc1cc2c(cc1OC)C1=NN(C(N)=S)C(c3ccccc3)C1C2", "note": "(stereo unspecified)", "MIC": 12.5}, {"smiles": "COc1ccc(C2C3Cc4cc(OC)c(OC)cc4C3=NN2C(N)=S)cc1", "note": "(stereo unspecified)", "MIC": 12.5}, {"smiles": "NNC(=O)c1ccncc1", "note": "[ISONIAZID]", "MIC": 0.78}, {"smiles": "CO[C@H]1/C=C/O[C@@]2(C)Oc3c(C)c(O)c4c(O)c(c(/C=N/N5CCN(C)CC5)c(O)c4c3C2=O)NC(=O)/C(C)=C\\C=C\\[C@H](C)[C@H](O)[C@@H](C)[C@@H](O)[C@@H](C)[C@H](OC(C)=O)[C@@H]1C", "note": "[RIFAMPIN]", "MIC": 0.006}]}]}
